In patent publication US8343475B2, “Small cationic antimicrobial peptides” (priority 2006, dated 2013):

Tests used:
Experiment in all cases: Chemokine induction in PBMC (capture ELISA)
Type in all cases: cell-based
[1] = tested on: CXCL1 (Gro-α) release by human PBMC; settings: background (196) subtracted
Procedure: FIG. 17. Induction of CXCL1 (Gro-α) release by 7.5×10^5 human PBMC in response to treatment with 20 or 100 μg/ml of different peptides for 24 hours.
(§1) Venous blood (20 ml) from healthy volunteers was collected in Vacutainer® collection tubes containing sodium heparin as an anticoagulant (Becton Dickinson, Mississauga, ON) in accordance with UBC ethical approval and guidelines. Blood was diluted 1:1 with complete RPMI 1640 medium and separated by centrifugation over a Ficoll-Paque® Plus (Amersham Biosciences, Piscataway, N.J., USA) density gradient. White blood cells were isolated from the buffy coat, washed twice in RPMI 1640 complete medium, and the number of peripheral blood mononuclear cells (PBMC) was determined by trypan blue exclusion. PBMC (5×10^5) were seeded into 12-well tissue culture dishes (Falcon; Becton Dickinson) at 0.75 to 1×10^6 cells/ml at 37° C. in 5% CO2. The above conditions were chosen to mimic conditions for circulating blood monocytes entering tissues at the site of infection via extravasation.
(§2) Following incubation of the cells under various treatment regimens, the tissue culture supernatants were centrifuged at 1000×g for 5 min, then at 10,000×g for 2 min to obtain cell-free samples. Supernatants were aliquoted and then stored at −20° C. prior to assay for various chemokines by capture ELISA (eBioscience and BioSource International Inc., CA, USA respectively)

[2] = tested on: MCP-1 release by human PBMC; settings: background (204) subtracted
Procedure: FIG. 15. Induction of MCP-1 release by 7.5×10^5 human PBMC in response to treatment with 20 or 100 μg/ml of different peptides for 24 hours.
as §1, §2

[3] = tested on: MCP-3 release by human PBMC; settings: background (6) subtracted
Procedure: FIG. 16. Induction of MCP3 release by 7.5×10^5 human PBMC in response to treatment with 20 or 100 μg/ml of different peptides for 24 hours.
as §1, §2

## 1021 (VRLRIRVAV) [compound 1021]
[1]; 20 μg/ml peptide
  Chemokine induction Gro-α: 29 pg/mL
[1]; 100 μg/ml peptide
  Chemokine induction Gro-α: 112 pg/mL
[2]; 20 μg/ml peptide
  Chemokine induction MCP-1: 158 pg/mL
[2]; 100 μg/ml peptide
  Chemokine induction MCP-1: 276 pg/mL
[3]; 20 μg/ml peptide
  Chemokine induction MCP-3: 3 pg/mL
[3]; 100 μg/ml peptide
  Chemokine induction MCP-3: 10 pg/mL

## 1022 (LRIRVIVWR) [compound 1022]
[1]; 20 μg/ml peptide
  Chemokine induction Gro-α: 10 pg/mL
[1]; 100 μg/ml peptide
  Chemokine induction Gro-α: 64 pg/mL
[2]; 20 μg/ml peptide
  Chemokine induction MCP-1: 52 pg/mL
[2]; 100 μg/ml peptide
  Chemokine induction MCP-1: 983 pg/mL
[3]; 20 μg/ml peptide
  Chemokine induction MCP-3: 0 pg/mL
[3]; 100 μg/ml peptide
  Chemokine induction MCP-3: 1 pg/mL

## 1023 (IRVWVLRQR) [compound 1023]
[1]; 20 μg/ml peptide
  Chemokine induction Gro-α: 36 pg/mL
[1]; 100 μg/ml peptide
  Chemokine induction Gro-α: 38 pg/mL
[2]; 20 μg/ml peptide
  Chemokine induction MCP-1: 250 pg/mL
[2]; 100 μg/ml peptide
  Chemokine induction MCP-1: 712 pg/mL
[3]; 20 μg/ml peptide
  Chemokine induction MCP-3: 0 pg/mL
[3]; 100 μg/ml peptide
  Chemokine induction MCP-3: 1 pg/mL

## 1024 (RIRVIVLKK) [compound 1024]
[1]; 20 μg/ml peptide
  Chemokine induction Gro-α: 20 pg/mL
[1]; 100 μg/ml peptide
  Chemokine induction Gro-α: -21 pg/mL
[2]; 20 μg/ml peptide
  Chemokine induction MCP-1: 285 pg/mL
[2]; 100 μg/ml peptide
  Chemokine induction MCP-1: 81 pg/mL
[3]; 20 μg/ml peptide
  Chemokine induction MCP-3: 1 pg/mL
[3]; 100 μg/ml peptide
  Chemokine induction MCP-3: 0 pg/mL

## 1025 (RRIVKKFQIVRR) [compound 1025]
[1]; 20 μg/ml peptide
  Chemokine induction Gro-α: -3 pg/mL
[1]; 100 μg/ml peptide
  Chemokine induction Gro-α: 32 pg/mL
[2]; 20 μg/ml peptide
  Chemokine induction MCP-1: 109 pg/mL
[2]; 100 μg/ml peptide
  Chemokine induction MCP-1: 284 pg/mL
[3]; 20 μg/ml peptide
  Chemokine induction MCP-3: 1 pg/mL
[3]; 100 μg/ml peptide
  Chemokine induction MCP-3: 3 pg/mL

## 1027 (KKQVSRVKVWRK) [compound 1027]
[1]; 20 μg/ml peptide
  Chemokine induction Gro-α: 8 pg/mL
[1]; 100 μg/ml peptide
  Chemokine induction Gro-α: 204 pg/mL
[2]; 20 μg/ml peptide
  Chemokine induction MCP-1: 54 pg/mL
[2]; 100 μg/ml peptide
  Chemokine induction MCP-1: 1466 pg/mL
[3]; 20 μg/ml peptide
  Chemokine induction MCP-3: 0 pg/mL
[3]; 100 μg/ml peptide
  Chemokine induction MCP-3: 14 pg/mL

## 1029 (KQFRIRVRV) [compound 1029]
[1]; 20 μg/ml peptide
  Chemokine induction Gro-α: 49 pg/mL
[1]; 100 μg/ml peptide
  Chemokine induction Gro-α: 60 pg/mL
[2]; 20 μg/ml peptide
  Chemokine induction MCP-1: 296 pg/mL
[2]; 100 μg/ml peptide
  Chemokine induction MCP-1: 205 pg/mL
[3]; 20 μg/ml peptide
  Chemokine induction MCP-3: 3 pg/mL
[3]; 100 μg/ml peptide
  Chemokine induction MCP-3: 3 pg/mL

## 1034 (KQFRNRLRIVKK) [compound 1034]
[1]; 20 μg/ml peptide
  Chemokine induction Gro-α: 60 pg/mL
[1]; 100 μg/ml peptide
  Chemokine induction Gro-α: 61 pg/mL
[2]; 20 μg/ml peptide
  Chemokine induction MCP-1: 434 pg/mL
[2]; 100 μg/ml peptide
  Chemokine induction MCP-1: 796 pg/mL
[3]; 20 μg/ml peptide
  Chemokine induction MCP-3: 0 pg/mL
[3]; 100 μg/ml peptide
  Chemokine induction MCP-3: 4 pg/mL

## 1036 (VQFRIRVIVIRK) [compound 1036]
[1]; 20 μg/ml peptide
  Chemokine induction Gro-α: 51 pg/mL
[1]; 100 μg/ml peptide
  Chemokine induction Gro-α: 137 pg/mL
[2]; 20 μg/ml peptide
  Chemokine induction MCP-1: 601 pg/mL
[2]; 100 μg/ml peptide
  Chemokine induction MCP-1: 968 pg/mL
[3]; 20 μg/ml peptide
  Chemokine induction MCP-3: 1 pg/mL
[3]; 100 μg/ml peptide
  Chemokine induction MCP-3: 39 pg/mL

## 1038 (IVVRRVIRK) [compound 1038]
[1]; 20 μg/ml peptide
  Chemokine induction Gro-α: 12 pg/mL
[1]; 100 μg/ml peptide
  Chemokine induction Gro-α: 518 pg/mL
[2]; 20 μg/ml peptide
  Chemokine induction MCP-1: 25 pg/mL
[2]; 100 μg/ml peptide
  Chemokine induction MCP-1: 1552 pg/mL
[3]; 20 μg/ml peptide
  Chemokine induction MCP-3: 0 pg/mL
[3]; 100 μg/ml peptide
  Chemokine induction MCP-3: 41 pg/mL

## 1039 (IWVIRRVWR) [compound 1039]
[1]; 20 μg/ml peptide
  Chemokine induction Gro-α: 469 pg/mL
[1]; 100 μg/ml peptide
  Chemokine induction Gro-α: 1717 pg/mL
[2]; 20 μg/ml peptide
  Chemokine induction MCP-1: 603 pg/mL
[2]; 100 μg/ml peptide
  Chemokine induction MCP-1: 2420 pg/mL
[3]; 20 μg/ml peptide
  Chemokine induction MCP-3: 13 pg/mL
[3]; 100 μg/ml peptide
  Chemokine induction MCP-3: 67 pg/mL
